Reference: patent US10807970B2 (priority 2016, dated 2020)

target: human σ1 receptor (Homo sapiens, UniProt Q99720); experiment: Human σ1 receptor radioligand assay ([3H](+)-pentazocine, transfected HEK-293 membranes); format: binding; design: μ and σ1 dual binding: key to the marks not given beside the values; settings: one class symbol for both Ki-σ1 (human σ1 receptor, A1) and Ki-μ (human μ-opioid receptor, A2)
Description: Human σ1 Receptor Radioligand Assay
To investigate binding properties of test compounds to human σ1 receptor, transfected HEK-293 membranes and [^3H](+)-pentazocine (Perkin Elmer, NET-1056), as the radioligand, were used. The assay was carried out with 7 μg of membrane suspension, 5 nM of [^3H](+)-pentazocine in either absence or presence of either buffer or 10 μM Haloperidol for total and non-specific binding, respectively. Binding buffer contained Tris-HCl 50 mM at pH 8. Plates were incubated at 37° C. for 120 minutes. After the incubation period, the reaction mix was then transferred to MultiScreen HTS, FC plates (Millipore), filtered and plates were washed 3 times with ice-cold 10 mM Tris-HCL (pH7.4). Filters were dried and counted at approximately 40% efficiency in a MicroBeta scintillation counter (Perkin-Elmer) using EcoScint liquid scintillation cocktail

human σ1 receptor, sequence (Q99720 whole entry): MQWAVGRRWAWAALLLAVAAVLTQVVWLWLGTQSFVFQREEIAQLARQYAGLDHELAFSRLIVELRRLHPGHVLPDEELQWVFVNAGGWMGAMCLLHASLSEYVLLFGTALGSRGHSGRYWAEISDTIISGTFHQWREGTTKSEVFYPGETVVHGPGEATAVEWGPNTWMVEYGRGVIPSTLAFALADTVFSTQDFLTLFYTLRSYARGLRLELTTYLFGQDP

| Compound | μ and σ1 dual binding |
| --- | --- |
| CC1(C)CC(C(=O)c2ccccn2)(N2CCN(CCOCC(F)(F)F)CC2)CCO1 (stereo not drawn) [Example 69, (2,2-dimethyl-4-(4-(2-(2,2,2-trifluoroethoxy)ethyl)piperazin-1-yl)tetrahydro-2H-pyran-4-yl)(pyridin-2-yl)methanone] | ++ |
| CC(C)(O)COCCN1CCN(C2(C(=O)c3ccccn3)CCOC(C)(C)C2)CC1 (stereo not drawn) [Example 70, (4-(4-(2-(2-hydroxy-2-methylpropoxy)ethyl)piperazin-1-yl)-2,2-dimethyltetrahydro-2H-pyran-4-yl)(pyridin-2-yl)methanone] | ++ |
| CC(C)OCCN1CCN(C2(C(=O)c3ccccn3)CC(C)(C)OC(C)(C)C2)CC1 [Example 72, (4-(4-(2-isopropoxyethyl)piperazin-1-yl)-2,2,6,6-tetramethyltetrahydro-2H-pyran-4-yl)(pyridin-2-yl)methanone] | ++ |
| CC(C)OCCN1CC2CN(C3(C(=O)c4ccccn4)CCOC(C)(C)C3)CC2C1 (stereo not drawn) [Example 73, (4-(5-(2-isopropoxyethyl)hexahydropyrrolo[3,4-c]pyrrol-2(1H)-yl)-2,2-dimethyltetrahydro-2H-pyran-4-yl)(pyridin-2-yl)methanone] | ++ |
| CC(C)OCCN1CCN(C2(C(=O)c3ccccn3)CCOC2)CC1 (stereo not drawn) [Example 74, (3-(4-(2-isopropoxyethyl)piperazin-1-yl)tetrahydrofuran-3-yl)(pyridin-2-yl)methanone] | ++ |
| CCC1(N2CCN(CCC(C)C)CC2)CCOC(C)(C)C1 (stereo not drawn) [Example 78, 1-(4-ethyl-2,2-dimethyltetrahydro-2H-pyran-4-yl)-4-isopentylpiperazine] | ++ |
| CC(C)CCN1CCN(C2(C)CCOC(C)(C)C2)CC1 (stereo not drawn) [Example 79, 1-isopentyl-4-(2,2,4-trimethyltetrahydro-2H-pyran-4-yl)piperazine] | ++ |
| CCC1(N2CCN(CCc3ccncc3)CC2)CCOC(C)(C)C1 (stereo not drawn) [Example 82, 1-(4-ethyl-2,2-dimethyltetrahydro-2H-pyran-4-yl)-4-(2-(pyridin-4-yl)ethyl)piperazine] | ++ |
| CCC1(N2CCN(CCc3cccnc3)CC2)CCOC(C)(C)C1 (stereo not drawn) [Example 83, 1-(4-ethyl-2,2-dimethyltetrahydro-2H-pyran-4-yl)-4-(2-(pyridin-3-yl)ethyl)piperazine] | ++ |

same assay, conditions: one class symbol for both Ki-σ1 (human σ1 receptor, A1) and Ki-μ (human μ-opioid receptor, A2); read-out: μ and σ1 dual binding

| Compound | Ki |
| --- | --- |
| CC(C)OCCN1CCC(C2(C(=O)c3ccccn3)CCOC(C)(C)C2)CC1 (stereo not drawn) [Example 77, (4-(1-(2-isopropoxyethyl)piperidin-4-yl)-2,2-dimethyltetrahydro-2H-pyran-4-yl)(pyridin-2-yl)methanone] | < 0.5 µM |
| CC1(C)CC(C(=O)c2ccccn2)(N2CCN(CCc3cccnc3)CC2)CCO1 (stereo not drawn) [Example 80, (2,2-dimethyl-4-(4-(2-(pyridin-3-yl)ethyl)piperazin-1-yl)tetrahydro-2H-pyran-4-yl)(pyridin-2-yl)methanone] | > 0.5 µM |
| CC1(C)CC(C(=O)c2ccccn2)(N2CCN(CCc3ccncc3)CC2)CCO1 (stereo not drawn) [Example 81, (2,2-dimethyl-4-(4-(2-(pyridin-4-yl)ethyl)piperazin-1-yl)tetrahydro-2H-pyran-4-yl)(pyridin-2-yl)methanone] | > 0.5 µM |

same assay, conditions: μ and σ1 dual binding, one class symbol for both Ki-σ1 (human σ1 receptor, A1) and Ki-μ (human μ-opioid receptor, A2)

| Compound | Ki |
| --- | --- |
| CC(C)OCCCN1CCN(C2(C(=O)c3ccccn3)CCOC(C)(C)C2)CC1 (stereo not drawn) [Example 71, (4-(4-(3-isopropoxypropyl)piperazin-1-yl)-2,2-dimethyltetrahydro-2H-pyran-4-yl)(pyridin-2-yl)methanone] | < 0.5 µM |
| CC(C)OCCN1CCC(C2(c3ccccn3)CCOC(C)(C)C2)CC1 (stereo not drawn) [Example 75, 2-(4-(1-(2-isopropoxyethyl)piperidin-4-yl)-2,2-dimethyltetrahydro-2H-pyran-4-yl)pyridine] | > 0.5 µM |
| CC(C)CCN1CCC(C2(C(=O)c3ccccn3)CCOC(C)(C)C2)CC1 (stereo not drawn) [Example 76, (4-(1-isopentylpiperidin-4-yl)-2,2-dimethyltetrahydro-2H-pyran-4-yl)(pyridin-2-yl)methanone] | < 0.1 µM |
